Assay: gradient 5% acetonitrile 3 min, to 50% in 2 min, to 85% in 15 min, held 3 min, 100 µL/min
Settings: column: Zorbax Extend-C18 2.1 x 50 mm; eluents: water / acetonitrile, 0.1% formic acid
In short: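 Mixtures of ~100 pure standards were chromatographed on a Zorbax Extend-C18 column (2.1 × 50 mm, 1.8 μm) at 100 μL/min using water and acetonitrile, each with 0.1% formic acid. Detection used a quadrupole time-of-flight mass spectrometer in positive and negative ionization mode, and data collection spanned 3 months. Retention time was obtained from adduct peaks picked computationally and each checked manually.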

Row | Compound | RP-LC retention time
1 | CC(C)(C)C(O)CCNC(=O)Cc1cccs1 (stereo not given) | 673 s
2 | COC(=O)c1cc(OCC(=O)Nc2ccccc2F)c2ccccc2n1 | 799 s
3 | c1ccc(COCCc2noc(C3CCCCN3)n2)cc1 (stereo not given) | 622 s
4 | COc1cccc(-c2csc(-c3nnn(-c4cccc(Cl)c4)c3N)n2)c1 | 1170 s
5 | Cn1c(=O)n(C2CCN(C(=O)Cc3ccccc3)CC2)c2ncncc21 | 655 s
6 | O=C(Cn1ccc2ccn(Cc3cccnc3)c2c1=O)N1CCOCC1 | 569 s
7 | Cc1c(S(=O)(=O)N2CCCC(C)C2)c(C)n(C)c1C(=O)N1CCc2ccccc21 (stereo not given) | 1070 s
8 | O=C(Cn1cnc2c(nnn2-c2ccc(Br)cc2)c1=O)NCc1ccco1 | 776 s
9 | COc1ccc(NC(=O)N2CCC(c3nc(C(=O)N4CCCCC4)c(C)o3)CC2)cc1F | 784 s
10 | COc1ccc(N2CCN(c3cc(SCC(=O)Nc4ccc(F)cc4C)ncn3)CC2)cc1 | 959 s
11 | CCCNC(=O)C1CCN(Cc2cc3ccccc3n2Cc2ccccc2)CC1 | 704 s
12 | O=C(NCc1ccc2c(c1)OCO2)C1CCCN(S(=O)(=O)c2c[nH]c(C(=O)N3CCCC3)c2)C1 (stereo not given) | 738 s
13 | Cc1nc(-c2noc(-c3ccc(F)cc3)n2)cn1CC(=O)Nc1cccc(Cl)c1 | 918 s
14 | CCc1nnc2ccc(-c3noc(-c4cc(F)ccc4F)n3)cn12 | 896 s
15 | CCc1ccc(NC(=O)N2CCC3(CC2)NC(=O)c2ccccc2N3C)cc1 | 808 s
16 | Cc1ccc(C(=O)NC2CCN(c3ccccc3)C2=O)c(C)c1 (stereo not given) | 797 s
17 | CCC(C)NC(=O)NC1CCN(c2nc3cccnc3n(Cc3ccc(C)cc3)c2=O)CC1 (stereo not given) | 1040 s
18 | O=C(Nc1cccc(Cl)c1)c1cn(-c2cc(N3CCCC3)ncn2)cn1 | 906 s
19 | COc1ccc(OC)c(CNC(=O)CCC(=O)N2CCCn3nc(C)cc32)c1 | 654 s
20 | CC(=O)N1CCCN(C2=NS(=O)(=O)C(c3ccccc3)=C2C)CC1 | 665 s
21 | COC(=O)c1cc(OCC(=O)Nc2ccc(F)cc2)c2cc(OC)c(OC)cc2n1 | 750 s
22 | COc1ccc(NS(=O)(=O)c2cn(C(C)C)c3ncccc23)cc1 | 840 s
23 | CCCNC(=O)C1CCN(c2ccc(SCC(=O)NCc3ccc4c(c3)OCO4)nn2)CC1 | 606 s

Row | Compound | RP-LC retention time
24 | CC(=O)N1CCc2cc(N3CC(C(=O)NCc4ccccc4C(F)(F)F)CC3=O)ccc21 (stereo not given) | 748 s
25 | Cc1ccc(NC(=O)NCCc2cn(CC(C)C)c3ncccc23)cc1Cl | 941 s
26 | O=C(Nc1ccc(N2CCOCC2)cc1)C1=CCN(Cc2ccc(F)cc2)CC1 | 603 s
27 | CCc1ccc(-c2ccc(SCC(=O)Nc3cc(Cl)ccc3OC)nn2)cc1 | 1180 s
28 | CCCn1cc(C(=O)NCCN(C)C)c(S(=O)(=O)N2CCN(c3cccc(Cl)c3)CC2)n1 | 745 s
29 | CC(=O)Cc1nsc(NC(=O)c2ccc(-c3cccc(Cl)c3)o2)n1 | 866 s
30 | COC(=O)N1CCN(CCNC(=O)NCCCc2ccccc2)CC1 | 559 s
31 | Cc1cccc(N2CCN(c3ncc(C(=O)O)c(C)n3)CC2)c1 | 945 s
32 | CC(CNC(=O)C1CCN(S(=O)(=O)c2cn(C(C)C)cn2)CC1)c1ccccc1 (stereo not given) | 764 s
33 | COc1cc2c(cc1OC)C(C(=O)Nc1ccc3c(c1)OCO3)C(c1cccs1)N(C)C2=O (stereo not given) | 790 s
34 | O=C(c1ccc(Cl)cc1)N1CCN(c2nc(CN3CCOCC3)cs2)CC1 | 638 s
35 | Cc1nnc2cc(N3CCN(S(=O)(=O)c4ccccc4F)CC3)cnn12 | 674 s
36 | c1csc(Cc2nc(-c3ccc4c(c3)ncn4CCN3CCCCC3)no2)c1 | 646 s
37 | CN(C(=O)Cn1cccc1-c1nc(-c2ccccc2)no1)c1ccccc1 | 1100 s
38 | O=C(Nc1ccc(-c2ccc(=O)[nH]n2)cc1)c1ccc(-n2cccn2)nn1 | 643 s
39 | COC(=O)c1ccccc1Nc1c(-c2cccc(O)c2)nc2cnccn12 | 792 s
40 | CCc1ccc(N2CC(c3nc(-c4ccc(OC)c(OC)c4)no3)CC2=O)cc1 (stereo not given) | 989 s
41 | Cc1ccc(NC(=O)Nc2ccc3nncn3c2)cc1C | 730 s
42 | c1cc(-c2noc(-c3cccc4[nH]ccc34)n2)cc(-c2ccn[nH]2)c1 | 900 s
43 | Cc1noc(-c2cc(=O)n(CC(=O)Nc3ccc4c(c3)OCCO4)c3ccccc23)n1 | 803 s
44 | Fc1ccc(Nc2nc(NCC3CCCO3)nc3c2cnn3-c2ccccc2)cc1 (stereo not given) | 1050 s
45 | Cc1cc(C(=O)Nc2ccc3c(c2)CCC(=O)N3C)no1 | 686 s
46 | COc1ccccc1C(=O)N1CCCC1c1cc(C(C)C)on1 (stereo not given) | 831 s

Row | Compound | RP-LC retention time
47 | CCOc1ccc(C(=O)N2CCC3(C2)C(=O)N(C)c2ccc(OC)cc23)cc1 (stereo not given) | 788 s
48 | Fc1ccccc1N1CCN(c2ncccc2-c2nnc(-c3ccccc3)o2)CC1 | 1150 s
49 | O=C(C1CC1)N1CCCN(c2ccc([N+](=O)[O-])cc2)CC1 | 688 s
50 | CCOC(=O)Cn1c(C2CCCN2C(=O)CC)nc2ccccc21 (stereo not given) | 613 s
51 | CCc1nn2c(CNC(=O)c3ccc(OC)c(F)c3)c(-c3ccccc3)nc2s1 | 912 s
52 | CCOc1ccc(NS(=O)(=O)c2cc(C(=O)N3CCN(c4cccc(Cl)c4)CC3)n[nH]2)cc1 | 980 s
53 | CCc1ccc(C(=O)c2cnc3ccc(OC)cc3c2N2CCN(C)CC2)cc1 | 614 s
54 | CC(C)n1nc(CNC(=O)c2ccc(F)c(F)c2)c2ccccc21 | 962 s
55 | CCC(C)NC(=O)N1CCN(Cc2nc3cc(C(C)(C)C)ccc3o2)CC1 (stereo not given) | 758 s
56 | CCCCn1c(=O)c2c(nc3n2CCN3c2ccc(OC)cc2)n(C)c1=O | 939 s
57 | CCn1nnc2ccc(-c3noc(-c4cccc(OC)c4)n3)cc21 | 1060 s
58 | CN1C(=O)c2[nH]nc(-c3ccccc3)c2C1c1cccc(O)c1 (stereo not given) | 687 s
59 | Cc1nn2c(CNS(=O)(=O)Cc3ccc(C)c(C)c3)c(-c3ccccc3)nc2s1 | 974 s
60 | COc1ccccc1NS(=O)(=O)c1ccc(-c2c(C)noc2C)cc1 | 924 s
61 | Cc1cc2[nH]c(C(=O)Nc3ccc(C)c(F)c3)c(CN3CCOCC3)c2s1 | 738 s
62 | Cc1cnc(C2CC2)n1CCNS(=O)(=O)c1ccccc1F | 587 s
63 | CCOC(=O)C1=C(C)NC(=O)NC1c1cn(-c2ccccc2)nc1-c1ccc(OCC)cc1 (stereo not given) | 946 s
64 | CSc1ccc(NC(=O)NC2CCN(c3ccc(C)c(C)c3)C2=O)cc1 (stereo not given) | 897 s
65 | N=C(N)SCCc1ccc(OCc2ccc([N+](=O)[O-])cc2)cc1 | 787 s
66 | Cc1ccc(C(=O)Nc2nc3c(s2)CN(S(=O)(=O)c2ccccc2)CC3)cc1Br | 1110 s
67 | COc1cccc(CNC(=O)NCCc2nc3cccnc3n2C2CCCC2)c1 | 684 s
68 | CCn1c(CCNC(=O)c2ccc(C)c(F)c2)nc2cccnc21 | 676 s
69 | COc1cccc(CNC(=O)Cc2csc3nc(-c4ccc(OC)c(OC)c4)cn23)c1 | 698 s

Row | Compound | RP-LC retention time
70 | Cc1ccc(Cl)cc1N(C)C(=O)C1CCCN(c2ncnc3c2nc2n3CCCCC2)C1 (stereo not given) | 918 s
71 | COc1ccc(CNC(=O)CN2C(=O)C3CCCCN3c3ccc(C(=O)N(C)C)cc32)c(OC)c1 (stereo not given) | 756 s
72 | Clc1ccc(Cl)c(-c2ccc(CNCc3ccco3)o2)c1 | 737 s
73 | O=C1CC(CNS(=O)(=O)c2ccc3c(c2)OCCO3)CN1c1ccc(Cl)cc1 (stereo not given) | 788 s
74 | COCCOC1CCOC2(CCN(C(=O)c3cccs3)CC2)C1 (stereo not given) | 691 s
75 | CCC1CCCCN1C(=O)c1cnc2nc(C)ccc2c1Nc1ccc(C)cc1 (stereo not given) | 674 s
76 | Cn1nnc2c(N3CCN(C(=O)c4c(F)cccc4Cl)CC3)ncnc21 | 687 s
77 | Cc1nn(C)cc1C(=O)Nc1nc2ccccc2[nH]1 | 537 s
78 | Cc1nc2cc(NC(=O)c3ccc(S(=O)(=O)N(C)CC4CCCO4)cc3)ccc2s1 (stereo not given) | 764 s
79 | Cc1ccc(CN2CCN(C3CCN(C(=O)NCc4ccc(F)cc4)CC3)C(=O)C2=O)cc1 | 767 s
80 | CS(=O)(=O)N1CCOc2ccc(NC(=O)C3CC3)cc2C1 | 696 s
81 | COc1ccc(NC(=O)Cn2c(N3CCCC3)nc(C)cc2=O)cc1OC | 601 s
82 | O=C(Nc1ccc(F)cc1)Oc1ccc[nH]c1=O | 684 s
83 | CC(=O)Nc1cc(NC(C)=O)ncn1 | 644 s
84 | Cc1cccc(-n2c(=O)c3c(cc(C)n3C)n(CC(=O)Nc3ccc(C(F)(F)F)cc3)c2=O)c1 | 968 s
85 | COc1ccc(NC(=O)c2cnc3c(c2)c(=O)n(C)c(=O)n3-c2ccccc2)c(OC)c1 | 844 s
86 | Cc1cc(C)n2nc(SCC(=O)Nc3ccc(C)c(C)c3)nc2n1 | 764 s
87 | CC(C)S(=O)(=O)N1CCC2(CC1)NCCCN=C2Nc1cccc(F)c1 | 638 s
88 | Cn1ncc2c3ccccc3n(CCCC(=O)NCc3ccccc3F)c2c1=O | 812 s
89 | CCC(=O)N1c2ccc(S(=O)(=O)N3CCCCC3)cc2CC1C(=O)NCc1ccc(C)cc1 (stereo not given) | 955 s
90 | COc1cn2c(cc1=O)C(=O)N(CCNC(=O)c1cc(=O)c3ccccc3o1)CC2 | 562 s
